Source: paper PMC7927014, “Novel Small Molecule Hsp90/Cdc37 Interface Inhibitors Indirectly Target K-Ras-Signaling” (Cancers, 2021)
Structures can show the parent of a compound that is named as a salt.

Assays:
[1] = test system: Hsp90/Cdc37; test: FIMM screening in split Renilla luciferase assay with hypomorphic NRL-Hsp90 construct, 20 μM; format: biochemical; details: for normalized RLU (FIMM Screening-1) / normalized RLU (FIMM Screening-2, scaffold based): DMSO = 1.00; for Average RLU (FIMM Screening-1) / Average RLU (FIMM Screening-2, scaffold based): mean of 3 wells; for Average RLU (FIMM Screening-1): DMSO 50019; for Average RLU (FIMM Screening-2, scaffold based): DMSO 51006
Method: (§1) In the second in silico screening of the FIMM database, we employed the four identified chemical scaffolds (Figure S2B) for the visual inspection of the FIMM compound library. […] All of the purchased compounds were validated in vitro at 20 μM using the split Renilla luciferase assay.
(§2) The Hsp90/Cdc37 split Renilla luciferase assay using the full length Hsp90 for the compound screening was described previously. […] After 48 h, the cells were trypsinized and washed with PBS. The harvested cells were lysed in 1 mL of the 1x lysis buffer provided in the Renilla Luciferase Reporter Assay System Kit from Promega (cat. E2820), and were incubated on ice for 10 min. The cell lysates were then cleared by centrifugation at 13,000× g for 1 min. […] After this, the screening/test compounds or DMSO—as indicated—were added to each well. In total, 5 µL NRL-Hsp90- or NRL-N-Hsp90-lysate was added to each well, one row at a time. Subsequently, the plate was incubated for 5 min at room temperature (RT). […] Just before the reading, 20 µL assay buffer containing 2× Renilla luciferase substrate (coelenterazine) was added. For the FIMM screening, sample wells were read on a PHERAstar plate reader (BMG LABTECH) at a gain level of 4000, after 10 s shaking, using a hypomorph of NRL-Hsp90. For the subsequent validations of the compounds, sample wells with the above-described assay constructs were read using a synergy H1 Hybrid Multi-Mode reader (BioTek) in the luminescence detection mode, as described previously in detail.

[2] = molecular target: T1, N-Hsp90/Cdc37 (Homo sapiens, UniProt P07900); test: N-Hsp90/Cdc37 split Renilla luciferase assay (N-terminal Hsp90 fragment, residues 1-223); format: biochemical; details: cell lysate
T1 construct: only the N-terminal ATP-ase domain of Hsp90 (N-Hsp90, residues 1-223); expressed in transfected cells; host or cells: HEK293 EBNA cells, cleared lysates
Method: as §2

[3] = molecular target: T2, Hsp90/Cdc37 (Homo sapiens, UniProt P07900); test: Hsp90/Cdc37 split Renilla luciferase assay, full length Hsp90 (cell lysate; IC50 and 20 μM validation); format: biochemical; details: for IC50: full length Hsp90, split Renilla luciferase assay, cell lysate; for normalized RLU / Average RLU: MolPort Screening-3, tested concentration of drugs 20 μM; for normalized RLU: RLU normalized to DMSO (=1.00); for Average RLU: average of 3 wells (DMSO 248028)
T2 construct: The Hsp90/Cdc37 split Renilla luciferase assay using the full length Hsp90 for the compound screening was described previously; expressed in transfected cells; host or cells: HEK293 EBNA cells, cleared lysates
Method: as §1, §2

[4] = molecular target: T3, Hsp90α (N-terminal) (Homo sapiens, UniProt P07900); test: Hsp90 N-terminal ATP-binding site competition assay (FITC-geldanamycin fluorescence polarization); details: 20 μM compound
T3 construct: purchased BPS Bioscience 50298
Method: The reaction was initiated by adding 35 ng/μL purified recombinant Hsp90α, and was incubated at RT with slow shaking for 2 h. All of the reactions were performed in a black, low binding NUNC microtiter plate, included in the kit, and the total reaction volume was 50 μL. The enzyme control was measured without the test compound, and the enzyme background control was measured without the test compound or Hsp90α. […] All of the controls and the blank contained 10% DMSO, as did all of the samples of the test compounds. All of the samples were analyzed as duplicates. […] The blank value was subtracted from all of the other values, and the fluorescence polarization was determined as:(1) mP = ((III − I⊥)/(III+ I⊥)) × 1000 where III is the intensity of the parallel, and I┴ the intensity of the perpendicular polarized light.

[5] = test system: MIA PaCa-2 cells; test: Tumorosphere assay (low adhesion, serum-free 3D spheroid culture); format: cell-based; details: MIA PaCa-2, 20 μM, 72 h
Method: (§3) Per well, 2000 cells were seeded in flat bottom 96-well suspension culture plates (cat. no. 655185, Cellstar, Greiner Bio-One) in 100 µL DMEM or RPMI media containing 1× B27 (cat. no. 17504044, Gibco, Thermo Fisher Scientific), 25 ng/mL EGF (cat. no. E9644, Sigma-Aldrich), and 25 ng/mL FGF (cat. no. RP-8628, Thermo Fisher Scientific), 20% MethoCult H4100 (cat. no. 04100, […] Technologies). After 2 days, 50 µL media containing 0.3% DMSO or 3× the concentration of the indicated compounds were added to the wells in a 1:2 dilution-series, starting at 100 µM. After 72 h of treatment, 10% (v/v) alamarBlue reagent (cat. no. DAL1100, Thermo Fisher Scientific) was added to each well. Then, the fluorescence intensity (excitation 560 nm and emission 590 nm) was measured after 4 h using a H1 Hybrid Multi-Mode reader (BioTek).

[6] = test system: SK-BR-3 cells; test: as above; format: cell-based; details: SK-BR-3, 20 μM, 72 h
Method: as §3

[7] = test system: HCC-44 cells; test: as above; format: cell-based; details: HCC-44, 20 μM, 72 h
Method: as §3

[8] = test system: MDA-MB-231 cells; test: as above; format: cell-based; details: MDA-MB-231, 20 μM, 72 h
Method: as §3

Compound | normalized RLU (FIMM Screening-1) [1] | Average RLU (FIMM Screening-1) [1] [RLU] | IC50 [2] [µM] | IC50 [3] [µM] | further results
NC(CSS(=O)(=O)O)=NCCC12CC3CC(CC(O)(C3)C1)C2 [×7648, 1-[2-[(1-amino-2-sulfosulfanylethylidene)amino]ethyl]-3-hydroxyadamantane] | 0.22 | 10978 | 14 ± 4 | 18 ± 2 | –
O=C(O[C@@H]1Cc2c(O)cc(O)cc2O[C@@H]1c1ccc(O)c(O)c1)c1cc(O)c(O)c(O)c1 [M15, (2R,3R)-2-(3,4-dihydroxyphenyl)-5,7-dihydroxy-3,4-dihydro-2H-1-benzopyran-3-yl 3,4,5-trihydroxybenzoate (epicatechin gallate)] | – | – | 4.8 ± 0.7 | 28 ± 4 | normalized RLU [3]: 0.33; Average RLU [3]: 80961 RLU
O=C(O[C@@H]1Cc2c(O)cc(O)cc2O[C@@H]1c1cc(O)c(O)c(O)c1)c1cc(O)c(O)c(O)c1 [compound 3, Epigallocatechin gallate] | 0.45 | 22619 | 57 ± 14 | 88 ± 23 | –
NC[C@@H]1O[C@H](O[C@H]2[C@@H](O)[C@H](O[C@@H]3[C@@H](O)[C@H](N)C[C@H](N)[C@H]3O[C@H]3O[C@H](CO)[C@@H](O)[C@H](O)[C@H]3N)O[C@@H]2CO)[C@H](N)[C@@H](O)[C@@H]1O [compound 6, Paromomycin sulfate, reference compound] | 0.67 | 33633 | – | – | –
O=C(O)c1cc(S(=O)(=O)Nc2cccc(Cl)c2)ccc1O [SC22, 5-[(3-chlorophenyl)sulfamoyl]-2-hydroxybenzoic acid] | – | – | – | – | normalized RLU (FIMM Screening-2, scaffold based) [1]: 0.73; Average RLU (FIMM Screening-2, scaffold based) [1]: 37332 RLU
O=C(CSc1nc2ccccc2s1)c1ccc(O)c(O)c1 [SC9, 2-(1,3-benzothiazol-2-ylsulfanyl)-1-(3,4-dihydroxyphenyl)ethan-1-one] | – | – | 64 ± 9 | 72 ± 10 | normalized RLU (FIMM Screening-2, scaffold based) [1]: 0.64; Average RLU (FIMM Screening-2, scaffold based) [1]: 32657 RLU
O=C(O[C@@H]1Cc2c(O)cc(O)cc2O[C@@H]1c1cc(O)c(=O)c2c(O)c(O)cc([C@H]3Oc4cc(O)cc(O)c4C[C@H]3OC(=O)c3cc(O)c(O)c(O)c3)c2c1)c1cc(O)c(O)c(O)c1 [compound 2, Theaflavin 3,3-digallate] | 0.12 | 5883 | 81 ± 16 | 75 ± 26 | –
O=C(CSS(=O)(=O)O)Nc1cccc(C(F)(F)F)c1 [×1625, [({[3-(trifluoromethyl)phenyl]carbamoyl}methyl)sulfanyl]sulfonate] | – | – | 94 ± 3 | 41 ± 8 | competition with FITC-geldanamycin (ATP-pocket binding, polarization signal) [4]: None of these four compounds displaced; effect on spheroid formation [5]: did not decrease; effect on spheroid formation [6]: did not decrease; effect on spheroid formation [7]: did not decrease; effect on spheroid formation [8]: did not decrease; normalized RLU [3]: 0.47; Average RLU [3]: 117361 RLU
O=c1c(O)cc([C@H]2Oc3cc(O)cc(O)c3C[C@H]2O)cc2c([C@H]3Oc4cc(O)cc(O)c4C[C@H]3O)cc(O)c(O)c12 [compound 1, Theaflavin] | 0.25 | 12261 | – | 29.3 | –
Cc1ccc(Nc2ccc(C(=O)O)cc2N)cc1 [compound 7, 3-amino-4-(4-toluidino)benzoic acid] | 0.56 | 28120 | 322 ± 50 | 177 ± 31 | –
Cc1cc(OCC(=O)Nc2ccccc2C(=O)O)cc(C)c1Cl [×1127, 2-[2-(4-chloro-3,5-dimethylphenoxy)acetamido]benzoic acid] | – | – | 11 ± 1 | 41 ± 10 | normalized RLU (FIMM Screening-2, scaffold based) [1]: 0.66; Average RLU (FIMM Screening-2, scaffold based) [1]: 33660 RLU
N=C(N)SCc1cc(=O)[nH]c(=O)[nH]1 [SC5, {[(2,6-dioxo-1,2,3,6-tetrahydropyrimidin-4-yl)methyl]sulfanyl}methanimidamide] | – | – | – | – | normalized RLU (FIMM Screening-2, scaffold based) [1]: 0.39; Average RLU (FIMM Screening-2, scaffold based) [1]: 19772 RLU
O=C(O[C@@H]1Cc2c(O)cc(O)cc2O[C@@H]1c1cc(O)c(=O)c2c(O)c(O)cc([C@H]3Oc4cc(O)cc(O)c4C[C@H]3O)c2c1)c1cc(O)c(O)c(O)c1 [compound 8, Theaflavin monogallates] | 0.25 | 12688 | – | 14.1 | –
Enamine compound T5807719 [compound 4] | 0.48 | 24009 | – | – | –
O=c1c(O)c(-c2ccc(O)c(O)c2)oc2cc(O)cc(O)c12 [×1742, 2-(3,4-dihydroxyphenyl)-3,5,7-trihydroxy-4H-chromen-4-one dihydrate (quercetin dihydrate)] | – | – | – | – | competition with FITC-geldanamycin (ATP-pocket binding, polarization signal) [4]: None of these four compounds displaced; effect on spheroid formation [5]: significantly increased; effect on spheroid formation [6]: did not decrease; effect on spheroid formation [7]: did not decrease; effect on spheroid formation [8]: significantly increased; normalized RLU [3]: 0.40; Average RLU [3]: 100349 RLU
Enamine compound T6605315 [compound 5] | 0.57 | 28274 | – | – | –
